Legend:
TNKS1 = TNKS1 (Homo sapiens, UniProt O95271); assay: TNKS1/PARP Biochemical Assay (TNKS1)
[1] = system: Axin1 protein levels in DLD1 cells; assay: Western Blotting for Direct and Downstream Targets of TNKS Inhibitors: Axin 1; format: cell-based;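 also: compound exposure 20 to 22 hours before lysis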
Procedure: DLD1 cells were assayed for the effect of putative Tankyrase1/2 inhibitors on TNKS1/2, Axin1/2 and β-catenin protein levels. […] Reduction of nuclear accumulation of β-catenin and ultimately, reduction of β-catenin/TCF/LEF transcriptional activation of Wnt target genes should correlate with loss of Wnt-luc reporter signal in the Wnt reporter assay.
DLD1 cells were seeded in a 6-well dish at 10000 cells/well in DMEM supplemented with 10% FBS. […] After washing in TBS-T, the membrane was probed with a species specific secondary antibody conjugated to HRP (1:5000, Pierce/ThermoFisher), washed again in TBS-T and reacted with chemiluminescent detection reagents (ECL, GE Healthcare, cat. no. RPN2109) followed by exposure to X-ray film (FujiFilm XR).

[2] = system: TNKS stabilisation in HeLa, HT1080, HTC75 cells
Procedure: Cells were seeded, dosed and whole cell lysates were isolated and western blotted as described above. Primary antibodies included TNKS (1:1000, Santa Cruz Biotech, cat. no. SC8377).

DLD1 cells = assay: Long-Term Clonogenic Assay (DLD1 cells); format: cell-based
Procedure: Clonogenic Inhibition in DLD1 or HT55 Cells
In order to determine the efficacy of chronic dosing of putative TNKS inhibitors, long term clonogenic or ‘colony formation’ assays were carried out. This included the sparse seeding of cells in a 6-well dish followed by continuous dosing of cells over 12-14 days (depending on relative cell growth). Appropriate cell lines (DLD1 or HT55) were seeded at 500 cells/well in a 6-well dish in DMEM supplemented with FBS. […] Dosages were carried out in triplicate. Cell media containing compound or DMSO only was replenished every 48 hours. Termination of the assay included the fixation of cells with trichlororacetic acid (1 mL, 10% (v/v), Sigma Aldrich, cat. no. T6399) and incubation for 16 hours at 4° C. Fixed cells were then washed with water, allowed to dry and stained with sulforhodamine B solution (sulforhodamine B 0.05% (w/v), Sigma Aldrich cat. no. S1402, acetic acid 1% (v/v), Fisher Scientific, cat. no. A/0400/PB17)) for 12 hours at room temperature. The stain was then removed and the cells washed copiously with aqueous acetic acid (1% v/v) and allowed to dry.
The data was normalised to the DMSO control and was expressed as surviving fraction as a function of inhibitor dose.

[3] = system: Wnt activity in DLD1-Wnt-Luc cells; assay: Wnt-Luciferase Reporter Assay; conditions: read-out: Wnt IC50

**Q.** What does the source list for `Cc1cccc2c(=O)[nH]c(-c3ccc(CN4CCCC4)cc3)cc12` [IQ-036]?
**A.** IC50 (TNKS1): < 50 nM; stabilize Axin1 (Western blotting) [1]: stabilize Axin1; stabilize TNKS (Western blotting) [2]: stabilize TNKS

**Q.** What does the source list for `CNCCOc1ccc(-c2cc3c(C)cccc3c(=O)[nH]2)cc1` [IQ-127, 5-Methyl-3-[4-(2-methylamino-ethoxy)-phenyl]-2H-isoquinolin-1-one]?
**A.** IC50 (TNKS1): < 50 nM; stabilize Axin1 (Western blotting) [1]: stabilize Axin1; Clonogenic SF50 (DLD1) (DLD1 cells): < 2 µM; stabilize TNKS (Western blotting) [2]: stabilize TNKS

**Q.** Which results are given for `Cc1cccc2c(=O)[nH]c(-c3ccc(CN4CCCCC4)cc3)cc12` [IQ-037]?
**A.** IC50 (TNKS1): < 50 nM; stabilize Axin1 (Western blotting) [1]: stabilize Axin1; stabilize TNKS (Western blotting) [2]: stabilize TNKS

**Q.** How did the IC50 (TNKS1) turn out when `COCCN1CCN(C(=O)c2ccc(-c3cc4c(C)cccc4c(=O)[nH]3)cc2)CC1` [IQ-102] was run?
**A.** < 20 nM

**Q.** What about the “stabilize Axin1 (Western blotting)” value [1] of the same compound?
**A.** stabilize Axin1

**Q.** What about the “Clonogenic SF50 (DLD1)” value (DLD1 cells) of the same compound?
**A.** < 2 µM

**Q.** And the “stabilize TNKS (Western blotting)” value [2]?
**A.** stabilize TNKS

**Q.** For `Cc1cccc2c(=O)[nH]c(-c3ccc(OCCN4CCOCC4)cc3)cc12` [IQ-133], which IC50 (TNKS1) is on record?
**A.** < 500 nM

**Q.** And the “stabilize Axin1 (Western blotting)” value [1]?
**A.** stabilize Axin1

**Q.** And the “stabilize TNKS (Western blotting)” value [2]?
**A.** stabilize TNKS

**Q.** For `Cc1cccc2c(=O)[nH]c(-c3ccc(N4CCN(C)CC4)nc3)cc12` [IQ-003], which IC50 (TNKS1) is on record?
**A.** 21 nM

**Q.** What about the “stabilize Axin1 (Western blotting)” value [1] of the same compound?
**A.** stabilize Axin1

**Q.** And the “Clonogenic SF50 (DLD1)” value (DLD1 cells)?
**A.** < 2 µM

**Q.** What about the “stabilize TNKS (Western blotting)” value [2] of the same compound?
**A.** stabilize TNKS

**Q.** And the IC50 [3]?
**A.** 12 nM

**Q.** For `Cc1cccc2c(=O)[nH]c(-c3ccc(C(=O)N(C)C4CCN(C)CC4)cc3)cc12` [IQ-100, N-Methyl-4-(5-methyl-1-oxo-1,2-dihydro-isoquinolin-3-yl)-N-(1-methyl-piperidin-4-yl)-benzamide], which IC50 (TNKS1) is on record?
**A.** < 20 nM

**Q.** What about the “stabilize Axin1 (Western blotting)” value [1] of the same compound?
**A.** stabilize Axin1

**Q.** And the “stabilize TNKS (Western blotting)” value [2]?
**A.** stabilize TNKS

**Q.** How did the IC50 (TNKS1) turn out when `O=c1[nH]c(-c2ccc(N3CCNCC3)nc2)cc2c(Cl)cccc12` [IQ-027] was run?
**A.** < 50 nM

**Q.** What about the “stabilize Axin1 (Western blotting)” value [1] of the same compound?
**A.** stabilize Axin1

**Q.** And the “stabilize TNKS (Western blotting)” value [2]?
**A.** stabilize TNKS

**Q.** Which results are given for `CN1CCN(c2ccc(-c3cc4c(Cl)cccc4c(=O)[nH]3)cn2)CC1` [IQ-002-1]?
**A.** IC50 (TNKS1): < 50 nM; stabilize Axin1 (Western blotting) [1]: stabilize Axin1; Clonogenic SF50 (DLD1) (DLD1 cells): < 2 µM; stabilize TNKS (Western blotting) [2]: stabilize TNKS

**Q.** Which “Clonogenic SF50 (DLD1)” value (DLD1 cells) does the source give for `Cc1cccc2c(=O)[nH]c(-c3ccc(CN4CCN(C)CC4)cc3)cc12` [IQ-038] here?
**A.** < 2 µM

**Q.** What about the “stabilize TNKS (Western blotting)” value [2] of the same compound?
**A.** stabilize TNKS

**Q.** What does the source list for `Cc1cccc2c(=O)[nH]c(-c3ccc(OCCN(C)C)cc3)cc12` [IQ-130]?
**A.** IC50 (TNKS1): 16 nM; stabilize Axin1 (Western blotting) [1]: stabilize Axin1; stabilize TNKS (Western blotting) [2]: stabilize TNKS; IC50 [3]: 165 nM

From patent publication US9193689B2, “3-aryl-5-substituted-isoquinolin-1-one compounds and their therapeutic use” (INSTITUTE OF CANCER RESEARCH: ROYAL CANCER HOSPITAL (THE), priority 2012, dated 2015)
